From patent US20220009909A1, “ADAMTS INHIBITORS, PREPARATION METHODS AND MEDICINAL USES THEREOF” (Eternity Bioscience Inc., priority 2020, published 2022)

How the values were obtained:
[1] = biological target: T1, ADAMTS-4 recombinant protein (Homo sapiens, UniProt O75173); experiment: In vitro fluorescence (FRET-peptide) enzymatic assay of ADAMTS-4 activity; type: biochemical; settings: FRET peptide substrate 15 μM, 10 nM enzyme, 37° C. 3 hours
T1 construct: purchased R&D Systems 4307-AD
T1 sequence (O75173 213-685 limits assumed): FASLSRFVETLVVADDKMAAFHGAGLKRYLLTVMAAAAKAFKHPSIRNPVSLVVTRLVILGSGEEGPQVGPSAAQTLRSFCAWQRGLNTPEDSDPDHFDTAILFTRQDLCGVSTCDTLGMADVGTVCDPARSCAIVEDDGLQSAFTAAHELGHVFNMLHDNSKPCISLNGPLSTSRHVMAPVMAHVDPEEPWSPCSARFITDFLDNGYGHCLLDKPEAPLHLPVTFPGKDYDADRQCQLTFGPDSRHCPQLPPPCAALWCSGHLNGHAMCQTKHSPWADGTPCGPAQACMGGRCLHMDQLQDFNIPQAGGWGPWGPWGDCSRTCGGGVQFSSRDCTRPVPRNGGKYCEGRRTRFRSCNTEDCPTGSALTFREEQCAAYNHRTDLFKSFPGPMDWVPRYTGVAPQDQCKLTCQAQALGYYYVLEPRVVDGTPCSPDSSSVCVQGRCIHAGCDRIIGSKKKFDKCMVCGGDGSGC
Method: (§1) A FRET (fluorescence resonance energy transfer) peptide was cleaved by recombinant ADAMTS-4 or ADAMTS-5 proteins into two separate fragments resulting in an increase of fluorescence signal which was quantified. The peptide was 5-FAM-TEGEARGSVILLK (5-TAMRA)K—NH2, customized from ANASPEC. ADAMTS-4 recombinant protein (4307-AD) and ADAMTS-5 recombinant protein (2198-AD) were purchased from R&D Systems.
(§2) An assay buffer containing 50 mM HEPES pH 7.5, 100 mM NaCl, 5 mM CaCl2, 0.1% CHAPS and 5% Glycerol was prepared. A volume of 2.5 μl of compound in the assay buffer was dispensed to a 384-well plate, and 2.5 μl of ADAMTS-4 or ADAMTS-5 protein (final concentration in the reaction was 10 nM) was added. The compounds and proteins were pre-incubated at room temperature for 15 minutes. Then, 5 μl of substrate was added to each well. The final substrate concentrations for ADAMTS-4 and ADAMTS-5 were 15 μM and 8 μM, respectively. The fluorescence signal in each well was determined, after incubation at 37° C. for 3 hours, on a TECAN plate reader (Excitation, 490 nm; Emission, 520 nm).
(§3) The data was inputted into GraphPad Prism, and the IC50 values were calculated using function “log (inhibitor) vs. response-Variable slope (four parameters)”, (See Table 1)

[2] = biological target: T2, ADAMTS-5 recombinant protein (Homo sapiens, UniProt Q9UNA0); experiment: Aggrecan-IGD enzymatic assay for ADAMTS-5 inhibitors (ARGSVIL-peptide ELISA); type: biochemical; settings: aggrecan-IGD protein substrate, 37° C. 45 minutes
T2 construct: purchased R&D Systems 2198-AD
T2 sequence (Q9UNA0 262-622 limits assumed): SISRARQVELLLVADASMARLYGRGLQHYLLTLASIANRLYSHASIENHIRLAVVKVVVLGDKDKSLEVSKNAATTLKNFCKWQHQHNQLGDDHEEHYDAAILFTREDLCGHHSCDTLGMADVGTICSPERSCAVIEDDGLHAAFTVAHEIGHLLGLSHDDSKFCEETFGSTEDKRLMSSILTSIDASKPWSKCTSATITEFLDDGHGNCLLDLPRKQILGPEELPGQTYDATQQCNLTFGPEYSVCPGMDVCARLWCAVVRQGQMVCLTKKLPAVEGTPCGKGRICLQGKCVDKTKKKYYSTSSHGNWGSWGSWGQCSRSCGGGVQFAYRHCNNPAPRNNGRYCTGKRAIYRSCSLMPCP
Method: In this assay, the enzymatic activity of recombinant ADAMTS-5 protein (2198-AD, R&D Systems) was assayed with a protein substrate, the aggrecan IGD protein. The aggrecan IGD protein is a polypeptide connecting human aggrecan globular domains 1 and 2 (T331-G458) expressed in E. coli with a C-terminal His-tag (BIOTEZ, 30411000). The enzymatic product ARGSVIL-peptide was detected using an ELISA kit from BioTEZ (30510111). An assay buffer containing 50 mM HEPES pH 7.5, 100 mM NaCl, 5 mM CaCl2, 0.1% CHAPS and 5% Glycerol was prepared. Recombinant ADAMTS-5 protein was diluted to 0.3 nM in the assay buffer. Ten μL of buffer and 10 μl of compound solution was transferred to each well of a 96-well plate and incubated at room temperature for 15 minutes. Substrate aggrecan-IGD was diluted to 100 nM with the assay buffer and 20 μl was added to each well. The plate was incubated at 37° C. for 45 minutes. After incubation, the newly generated epitope ARGSVIL-peptides were measured using the Aggrecanase Activity ELISA Assay Kit following the manufacturer's instructions. Then, 100 μl of stop solution was added and the absorbance of each well was read at 450 nm, using […] as reference on a TECAN plate reader.
A standard curve of the ELISA assay was generated in GraphPad Prism using Sigmoidal 4PL function and the corresponding peptide concentrations were calculated based on the standard curve. The IC50 values were calculated using function “log (inhibitor) vs. response-Variable slope (four parameters)”. (See Table 2).

[3] = biological target: T2, ADAMTS-5 recombinant protein; experiment: In vitro fluorescence (FRET-peptide) enzymatic assay of ADAMTS-5 activity; type: biochemical; settings: FRET peptide substrate 8 μM, 10 nM enzyme, 37° C. 3 hours
Method: as §1, §2, §3

[4] = system: mouse femoral head cartilage; experiment: Mouse cartilage explant assay (IL-1α induced GAG release); type: cell-based; settings: inhibition of GAG release, IL-1α 1 ng/mL, 72 hours; for inhibition at 2 µM: compound 2 μM, read-out: Inhibiton % at 2 μM; for inhibition at 20 µM: compound 20 μM
Method: In this assay, fresh mouse femoral head cartilage was treated with IL-1a protein (Sigma-Aldrich, 12778) in culture media, which induced the cartilage catabolism. Then, the GAGs attached to the cleaved aggrecan fragments (released in the media) and the GAGs attached to the intact aggrecan were measured by dimethylmethylene blue dye in the Glycosaminoglycans Assay Kit (Chondrex, 6022).
Femoral head cartilage samples were isolated from mice (25 days old, male, C57BL/6, from Charles River Lab) and put into 2.0 mL tubes filled-up with media (DMEM, 10% FBS, 4 mM Glutamine, penicillin-streptomycin, 20 mM HEPES). 200 μl of media without FBS was added to each well of a 48-well plate, and one piece of cartilage was transferred to a well in the plate. Then the media was aspirated, and compounds and IL-1α protein were added to the plate in a total volume of 400 μl of fresh media without FBS. The final concentration of IL-1α was 1 ng/mL. The plate was incubated at 37° C. for 72 hours in a humidified incubator with 5% CO2 supply.
The supernatant was transferred to a 1.5 mL tube and kept at −20° C. Each cartilage sample was transferred to another 1.5 mL tube containing 400 μl of freshly made papain solution. The papain solution contained 125 μg/mL papain (Sigma-Aldrich, P3125), 0.1 M sodium acetate (Sigma-Aldrich. S7899), pH 5.5 and 5 mM EDTA and 5 mM L-cysteine-HCl (Sigma-Aldrich, C7880). The cartilage samples were kept rocking in a 60° C. water bath for 24 hours.
The lysates were vortexed for 10 seconds and spinned at 10,000 rpm for 2 minutes. Both the supernatant and the lysate samples were diluted with PBS and mixed with 100 μL of dye from the Glycosaminoglycans Assay Kit. The optical density from each well was determined with a TECAN plate reader set to a wavelength of 525 nm,
The concentrations of GAGs in the supernatant and lysates were determined based on the standard curve with a dose range of chondroitin sulfate provided in the kit. The percentage of GAG release was calculated as the following: […]
The test compound effect was expressed as the percent of inhibition using the following formula: […]

Row | IC50 [1] | IC50 [2] | IC50 [3] | SMILES | inhibition at 2 µM [4] | inhibition at 20 µM [4]
1 | 16 nM | 26 nM | 23 nM | O=C1NC(=O)[C@](CNC(=O)N2Cc3cc(Cl)c(Cl)cc3C2)(C2CC2)N1 [Example 1-2, (R)-5,6-dichloro-N-((4-cyclopropyl-2,5-dioxoimidazolidin-4-yl)methyl)isoindoline-2-carboxamide] | 47% | 87%
2 | 34 nM | 17 nM | 9 nM | C[C@@H]1c2cc(Cl)c(Cl)cc2CN1C(=O)NC[C@@]1(C2CC2)NC(=O)NC1=O [Example 2-1, (R)-5,6-dichloro-N—(((R)-4-cyclopropyl-2,5-dioxoimidazolidin-4-yl)methyl)-1-methylisoindoline-2-carboxamide] | 14% | 86%
3 | 12 nM | 17 nM | 8 nM | C[C@@H]1c2cc(C(F)(F)F)c(Cl)cc2CN1C(=O)NC[C@@]1(C2CC2)NC(=O)NC1=O [Example 8-1, (R)-5-chloro-N—(((R)-4-cyclopropyl-2,5-dioxoimidazolidin-4-yl)methyl)-1-methyl-6-(trifluoromethyl)isoindoline-2-carboxamide] | 61% | 95%

Second part, the molecule before the results:

Row | SMILES | IC50 [1] | IC50 [2] | IC50 [3] | inhibition at 2 µM [4] | inhibition at 20 µM [4]
4 | O=C1NC(=O)C(CNC(=O)N2Cc3cc(Cl)c(Cl)cc3C2)(C2CC2)N1 (stereo not shown) [Example 1, 5,6-dichloro-N-((4-cyclopropyl-2,5-dioxoimidazolidin-4-yl)methyl)isoindoline-2-carboxamide] | 31 nM | 60 nM | 38 nM |  | 
5 | CC1c2cc(Cl)c(Cl)cc2CN1C(=O)NC[C@@]1(C2CC2)NC(=O)NC1=O (stereo partly drawn) [Example 2, 5,6-dichloro-N—(((R)-4-cyclopropyl-2,5-dioxoimidazolidin-4-yl)methyl)-1-methylisoindoline-2-carboxamide] | 42 nM | 44 nM | 36 nM |  | 
6 | O=C1NC(=O)[C@](CNC(=O)N2Cc3cc(Cl)c(C(F)(F)F)cc3C2)(C2CC2)N1 [Example 3, (R)-5-chloro-N-((4-cyclopropyl-2,5-dioxoimidazolidin-4-yl)methyl)-6-(trifluoromethyl)isoindoline-2-carboxamide] | 39 nM | 40 nM | 40 nM |  | 
7 | O=C1NC(=O)C(CNC(=O)N2Cc3ccc(C(F)(F)F)cc3C2)(C2CC2)N1 (stereo not shown) [Example 4, N-((4-cyclopropyl-2,5-dioxoimidazolidin-4-yl)methyl)-5-(trifluoromethyl)isoindoline-2-carboxamide] | 280 nM | 140 nM | 100 nM | 0% | 94%
8 | CC1c2cc(C(F)(F)F)c(Cl)cc2CN1C(=O)NC[C@@]1(C2CC2)NC(=O)NC1=O (stereo partly drawn) [Example 8, 5-chloro-N—(((R)-4-cyclopropyl-2,5-dioxoimidazolidin-4-yl)methyl)-1-methyl-6-(trifluoromethyl)isoindoline-2-carboxamide] | 33 nM | 34 nM | 22 nM |  | 
9 | [2H]C1([2H])c2cc(Cl)c(C(F)(F)F)cc2C(C)N1C(=O)NC[C@@]1(C2CC2)NC(=O)NC1=O (stereo partly drawn) [Example 9, 5-chloro-N—(((R)-4-cyclopropyl-2,5-dioxoimidazolidin-4-yl)methyl)-1-methyl-6-(trifluoromethyl)isoindoline-3,3-d2-2-carboxamide] | 53 nM | 34 nM | 30 nM |  | 
10 | [2H]C1([2H])c2cc(Cl)c(Cl)cc2C(C)N1C(=O)NC[C@@]1(C2CC2)NC(=O)NC1=O (stereo partly drawn) [Example 11, 5,6-dichloro-N—(((R)-4-cyclopropyl-2,5-dioxoimidazolidin-4-yl)methyl)-1-methylisoindoline-3,3-d2-2-carboxamide] | 92 nM |  | 30 nM |  | 
